This is an account of results in ChEMBL document CHEMBL2385011, “Optimization of a 1,5-dihydrobenzo[b][1,4]diazepine-2,4-dione series of HIV capsid assembly inhibitors 1: addressing configurational instability through scaffold modification” (Bioorg Med Chem Lett, 2013).

pEC50, pIC50: −log10 of the molar value. Some results are limits rather than exact numbers.

A short description of data set [1]: Cytotoxicity against human C8166 cells. In kind it is cell-based.
For data set [2], the system named is Human immunodeficiency virus 1. The data set can be described thus: Antiviral activity against HIV1 infected in human C8166 cells expressing LTR after 3 days by luciferase reporter gene assay. The format is functional, organism-based. To be noted: Human immunodeficiency virus 1, C8166, 72 h. On the technique in general: A reporter such as luciferase makes a cellular process visible.

Data set [3] has as its target Structural capsid protein (Human immunodeficiency virus 1, UniProt Q76129). The data set can be described thus: Inhibition of HIV1 capsid-nucleocapsid assembly expressed in Escherichia coli BL21(DE3) after 2 hrs by fluorescence assay.
Data set [4] concerns the target Structural capsid protein (Human immunodeficiency virus 1) (UniProt Q76129). The experiment in a line: Inhibition of HIV1 capsid-nucleocapsid assembly expressed in Escherichia coli BL21(DE3) at 3.5 uM after 2 hrs by fluorescence assay relative to control.

Chain of Structural capsid protein (Q76129 whole entry): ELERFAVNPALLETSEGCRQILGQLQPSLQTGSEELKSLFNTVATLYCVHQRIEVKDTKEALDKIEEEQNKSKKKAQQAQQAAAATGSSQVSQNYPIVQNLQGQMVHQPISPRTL
Chain of Structural capsid protein (Human immunodeficiency virus 1) (Q76129 as listed by the source): as the sequence (Q76129 whole entry) above

Consider `CCN1C(=O)N(c2cccc(OC)c2)C(=O)N(c2ccccc2)c2cc(C(F)(F)F)ccc21`, for which the CC50 (as a rule, the concentration that lowers cell viability or growth by half) in data set [1] is more than 20000 nM. Moreover, in data set [2], the pEC50 (as a rule, the EC50 on a negative log10 scale, so that one unit is a factor of ten) is 5.92. For the same molecule, the pIC50 (usually the IC50 on a negative log10 scale, so that one unit is a factor of ten) in data set [3] is 6.68.
The like results for `CCN1C(=O)N(c2ccccc2)C(=O)N(c2ccccc2)c2cc(C(F)(F)F)ccc21` were, in that order, more than 4000 nM, 6.22 and 6.20.
Take `CCN1C(=O)C2(CC(C(C)C)c3cc(O)ccc32)C(=O)N(c2ccccc2)c2cc(C(F)(F)F)ccc21` (stereo unspecified): in data set [3], the pIC50 is 5.96.
In data set [1], `CCN1C(=O)N(c2ccc(C(=O)NC)cc2)C(=O)N(c2ccccc2)c2cc(C(F)(F)F)ccc21` returned a CC50 of 31000 nM. For the same molecule, the pEC50 in data set [2] is 6.32. In data set [3], this molecule showed a negative logarithm of the IC50 (pIC50) of 6.89.
In turn, `CN1C(=O)C2(CCc3cc(NC(=O)[C@@H]4CCCN4)ccc32)C(=O)N(c2ccccc2)c2cc(C(F)(F)F)ccc21` (stereo partly specified) had a CC50 in data set [1] of 11000 nM. This molecule had a pEC50 in data set [2] of 6.28. This molecule also gave a pIC50 in data set [3] of 6.96.
In data set [2], `CCN1C(=O)C(c2ccccc2)C(=O)N(c2ccccc2)c2cc(C(F)(F)F)ccc21` (stereo unspecified) had a pEC50 of 5.59. The molecule further showed a negative logarithm of the IC50 (pIC50) in data set [3] of 6.14.
For `CN1C(=O)C(c2ccccc2)C(=O)N(c2ccccc2)c2cc(C(F)(F)F)ccc21` (stereo unspecified), the negative-log IC50 (pIC50) in data set [3] was 6.17.
On the same count and under the same terms, the result for `CCN1C(=O)C2(CC(=O)c3cc(O)ccc32)C(=O)N(c2ccccc2)c2cc(C(F)(F)F)ccc21` (stereo unspecified) reads 5.82.
With `CCN1C(=O)C2(CCc3ccc(O)cc32)C(=O)N(c2ccccc2)c2cc(C(F)(F)F)ccc21` (stereo unspecified), the CC50 in data set [1] was more than 27000 nM. In data set [2], this molecule had a pEC50 of 5.92. Also, in data set [3], the pIC50 was 6.23.
The like results for `CCN1C(=O)C2(CCc3cc(O)ccc32)C(=O)N(c2ccccc2)c2cc(C(F)(F)F)ccc21` (stereo unspecified) were, in that order, 32000 nM, 6.16 and 6.68.
Molecule `CCN1C(=O)C2(CC(N)c3cc(O)ccc32)C(=O)N(c2ccccc2)c2cc(C(F)(F)F)ccc21` (stereo unspecified) had a pIC50 in data set [3] of 5.44.
Still for that read-out and setting: next, `CCN1C(=O)C2(CC(O)c3cc(O)ccc32)C(=O)N(c2ccccc2)c2cc(C(F)(F)F)ccc21` (stereo unspecified): 5.68.
Regarding `CN1C(=O)C(C)(c2ccccc2)C(=O)N(c2ccccc2)c2cc(C(F)(F)F)ccc21` (stereo unspecified), in data set [4], the inhibition – broadly, the share of the control response that was lost under treatment – came out at 8%.
Regarding `CCN1C(=O)N(c2ccc(OC)cc2)C(=O)N(c2ccccc2)c2cc(C(F)(F)F)ccc21`, the CC50 in data set [1] was more than 16000 nM. For the same molecule, the pEC50 in data set [2] was 6.14. Besides, the pIC50 in data set [3] was 6.74.
Take `CCN1C(=O)N(c2ccc(O)c(C)c2)C(=O)N(c2ccccc2)c2cc(C(F)(F)F)ccc21`: the CC50 in data set [1] worked out at 17000 nM. Further, the pEC50 in data set [2] was 6.59. The pIC50 in data set [3] is 7.05.
The like results for `CCN1C(=O)N(c2cc(C)c(O)c(Cl)c2)C(=O)N(c2ccccc2)c2cc(C(F)(F)F)ccc21` were, in that order, more than 10000 nM, 6.82 and 7.22.
For the molecule `CCN1C(=O)N(c2ccc(C)cc2)C(=O)N(c2ccccc2)c2cc(C(F)(F)F)ccc21`, the CC50 in data set [1] is more than 6500 nM. In data set [2], this molecule gave a pEC50 of 6.27. The pIC50 in data set [3] was 6.72.
In turn, `CCN1C(=O)C2(CC(C)c3cc(O)ccc32)C(=O)N(c2ccccc2)c2cc(C(F)(F)F)ccc21` (stereo unspecified) gave a pIC50 in data set [3] of 6.54.
On to `CCN1C(=O)C2(CCc3c(O)cccc32)C(=O)N(c2ccccc2)c2cc(C(F)(F)F)ccc21` (stereo unspecified), for which the CC50 in data set [1] is more than 21000 nM. Further, the pEC50 in data set [2] is 6.11. In data set [3], this molecule showed a pIC50 of 6.62.
On the same counts, the results for `CN1C(=O)C2(CCc3cc(N)ccc32)C(=O)N(c2ccccc2)c2cc(C(F)(F)F)ccc21` (stereo unspecified) are more than 15000 nM, 6.39 and 6.80.
The like results for `CCN1C(=O)N(c2cccc(C(=O)NC)c2)C(=O)N(c2ccccc2)c2cc(C(F)(F)F)ccc21` were, in that order, more than 22000 nM, 5.92 and 6.55.
The like results for `CCN1C(=O)C2(CCc3cc(OC)ccc32)C(=O)N(c2ccccc2)c2cc(C(F)(F)F)ccc21` (stereo unspecified) were, in that order, more than 4000 nM, 6.29 and 6.80.
`CCN1C(=O)C2(CCc3ccccc32)C(=O)N(c2ccccc2)c2cc(C(F)(F)F)ccc21` (stereo unspecified): the CC50 in data set [1] was more than 16000 nM. In data set [2], this molecule gave a negative-log EC50 (pEC50) of 5.80. Also, the pIC50 in data set [3] was 6.34.
On the same counts, the results for `CCN1C(=O)N(c2ccc(O)cc2)C(=O)N(c2ccccc2)c2cc(C(F)(F)F)ccc21` are 35000 nM, 6.42 and 7.30.
With `CCC1CC2(C(=O)N(CC)c3ccc(C(F)(F)F)cc3N(c3ccccc3)C2=O)c2ccc(O)cc21` (stereo unspecified), the pIC50 in data set [3] was 6.14.
On to `CCN1C(=O)N(c2cccc(C(=O)NCCN3CCOCC3)c2)C(=O)N(c2ccccc2)c2cc(C(F)(F)F)ccc21`, for which the CC50 in data set [1] is more than 19000 nM. Further, the pEC50 in data set [2] was 5.96. This molecule gave a pIC50 in data set [3] of 6.66.
